# From US5731334A, “Method for treating cancer using taxoid onium salt prodrugs” (priority 1995, dated 1998)
# Tests used:
# SK-Mel-28 melanoma cells = assay: XTT dye binding cytotoxicity assay, SK-Mel-28; type: cell-based; conditions: Homo sapiens; SK-Mel-28, melanoma; 72 h; read-out: IC50
# Experimental: (§1) All cell lines described herein were obtained from the ATCC and maintained in media formulations as recommended by the supplier. The cell lines were tested for mycoplasma contamination prior to incubation at 37° C. in 5% carbon dioxide. Normal human dermal fibroblasts, peripheral blood lymphoblasts and mammary epithelial cells were obtained from Clonogenic Cor., San Diego, Calif. and were maintained under the above incubation conditions in special media provided by the supplier.
# (§2) Antiproliferative activities of the onium salts were determined using the XTT dye binding assay. Cells were harvested with trypsin/EDTA (Irvine Scientific), washed, resuspended in the appropriate medium, and counted in a hemocytometer using Trypan Blue to determine viability. Then 10^4 cells/well were added to 96 well microtiter plates and incubated for 24 hours before addition of drug at concentrations in the range of 10^-4 to 10^-13 molar by direct addition from DMSO solutions. After 72 hours, XTT binding dye was added and incubation was continued for 4 hours. The inhibition of cell proliferation was quantified using a Molecular Devices Microplate Reader. The absorbance of XTT was measured at […]. The concentration of drug which inhibited growth of cells by 50% was calculated from duplicated determinations.
# [1] = tested on: A-549 lung carcinoma cells; assay: XTT dye binding cytotoxicity assay, A-549; type: cell-based; conditions: Homo sapiens, A549; A-549, lung carcinoma; 72 h; read-out: IC50
# Experimental: as §1, §2
# [2] = tested on: BT-549 breast carcinoma cells; assay: XTT dye binding cytotoxicity assay, BT-549; type: cell-based; conditions: Homo sapiens; BT-549, breast carcinoma; 72 h; read-out: IC50
# Experimental: as §1, §2
# [3] = tested on: Capan 1 pancreas cancer cells; assay: XTT dye binding cytotoxicity assay, Capan 1; type: cell-based; conditions: Homo sapiens; Capan 1, pancreas cancer; 72 h; read-out: IC50
# Experimental: as §1, §2
# [4] = tested on: OVCAR-3 ovarian carcinoma cells; assay: XTT dye binding cytotoxicity assay, OVCAR-3; type: cell-based; conditions: Homo sapiens; OVCAR-3, ovarian carcinoma; 72 h; read-out: IC50
# Experimental: as §1, §2
# [5] = tested on: SK-N-SH neuroblastoma cells; assay: XTT dye binding cytotoxicity assay, SK-N-SH; type: cell-based; conditions: Homo sapiens, neuroblastoma, 72 h, read-out: IC50
# Experimental: as §1, §2
# [6] = tested on: 786-0 renal cell carcinoma cells; assay: XTT dye binding cytotoxicity assay, 786-0; type: cell-based; conditions: Homo sapiens; 786-0, renal cell carcinoma; 72 h; read-out: IC50
# Experimental: as §1, §2
# [7] = tested on: PC-3 prostate carcinoma cells; assay: XTT dye binding cytotoxicity assay, PC-3; type: cell-based; conditions: Homo sapiens, 72 h
# Experimental: as §1, §2
# [8] = tested on: Molt-4 T-cell leukemia cells; assay: XTT dye binding cytotoxicity assay, Molt-4; type: cell-based; conditions: Homo sapiens; Molt-4, T-cell leukemia; 72 h; read-out: IC50
# Experimental: as §1, §2
# [9] = tested on: HL-60 promyelocytic leukemia cells; assay: XTT dye binding cytotoxicity assay, HL-60; type: cell-based; conditions: Homo sapiens; HL-60, promyelocytic leukemia; 72 h; read-out: IC50
# Experimental: as §1, §2
# L-1210 leukemia cells = assay: XTT dye binding cytotoxicity assay, L-1210; type: cell-based, mouse; conditions: L1210; L-1210, mouse leukemia; 72 h; read-out: IC50
# Experimental: as §1, §2
# [10] = tested on: CHO Chinese hamster ovary cells; assay: XTT dye binding cytotoxicity assay, CHO; type: cell-based; conditions: Cricetulus griseus; CHO, Chinese hamster ovary (untransformed); 72 h; read-out: IC50
# Experimental: as §1, §2
# NHDF dermal fibroblast = assay: XTT dye binding cytotoxicity assay, NHDF; type: cell-based; conditions: Homo sapiens, dermal fibroblast (untransformed), 72 h, read-out: IC50
# Experimental: as §1, §2
# [11] = tested on: RPMI-7666 blood lymphoblasts; assay: XTT dye binding cytotoxicity assay, RPMI-7666; type: cell-based; conditions: Homo sapiens; RPMI-7666, blood lymphoblasts (untransformed); 72 h; read-out: IC50
# Experimental: as §1, §2
# intact Molt-4 cells = assay: Competition binding of tritiated compounds to intact Molt-4 cells; set-up: species or system human
# Experimental: The competition by nonradioactive taxol or c-2'-MPA-taxol for the binding of 1×10^-9 M tritiated compounds by intact Molt-4 cells is illustrated in FIG. 3. Tritiated taxol (Moravek Corp.) was treated with 2-fluoropyridiunium tosylate according to the method of Nicolaou et al. to yield the C-2'-MPT-^3 H-taxol. (Angew. Chem., Int. Ed. 1994: vol. 34, pp. 1583-1587.) Six well plates were incubated with 10^6 Molt-4 cells in 50 mM phosphate buffered saline (PBS) or PRPMI media to which 10^-9 M of the radiolabeled taxol or taxol onium salt was added together with increasing concentrations of nonradiolabeled compound. After 30 minutes, the cells were centrifuged, washed with PBS and 1% SDS was added. […] Alternatively, the cells may be lysed by sonication.
# [12] = In vivo elimination in BALB/C mice; conditions: 24 hours after injection
# Experimental: C-2'-MPA-Taxol (1 mM in 0.9% saline solution, 400 μL) was injected along with tritiated taxol at 32000 cpm into normal BALB/C mice (4 mice each) housed in metabolic cages and the urine and feces were measured periodically in a scintillation counter using Achillea scintillation fluid.
# The antitumor activity of the onium salts of taxol were assessed in nude mice bearing tumors of human A-549 lung adenocarcinomas, Ovcar-3 ovarian carcinoma, and PC-3 prostate carcinoma cells. […] FIG. 5 illustrates antiproliferation results for 2'-MPA-3-thiophene-taxol (4) and 2' MPA taxol (2) for the Ovcar-3 human tumor xenograft. […] FIG. 6, summarizes the results for a PC-3, prostate tumor model study. Taxol was compared with both the 2'- and 7-substituted oxonium salts. […] Tritiated taxol and 2' MPA-taxol were used in drug elimination experiments in normal BALB/C mice. In both groups of mice of four animals each, only 4-5% of the administered radioactivity was measured in the combined urine and feces 24 hours after injection.
# tumor cell lines = assay: Cytotoxicity, summary over tumor cell lines (XTT); type: cell-based, human and murine; conditions: on average
# Experimental: Antiproliferative activities of the onium salts were determined using the XTT dye binding assay. Cells were harvested with trypsin/EDTA (Irvine Scientific), washed, resuspended in the appropriate medium, and counted in a hemocytometer using Trypan Blue to determine viability. […] After 72 hours, XTT binding dye was added and incubation was continued for 4 hours. The inhibition of cell proliferation was quantified using a Molecular Devices Microplate Reader. […] The concentration of drug which inhibited growth of cells by 50% was calculated from duplicated determinations.
# [13] = tested on: Ovcar 3 ovarian carcinoma tumor xenograft
# Experimental: (§3) Athymic nude mice were purchased from Harlan-Sprague-Dawley. The animals were housed in microisolated cases under positive air pressure and all manipulations and drug treatments were performed in a laminar flow cabinet. Tumor cells were grown under the above tissue culture conditions. Cell suspensions in RPMI medium were injected S./C. Treatment was started one day after inoculation by i.p. injection of 400 μl drug solutions. Tumors were measured 3 times weekly in two dimensions, using calipers and tumor volume as calculated using the formula (V=w^2 ×L×(3.142).
# The tumor model was generated from an ATTC Ovcar 3 carcinoma cell line that was maintained under standard cell proliferation conditions, viz. 37° C., 5% carbon dioxide in sterile air. Each cohort was comprised of eight randomly chosen female athymic nude mice, for a total population size of twenty four. Hemocytometer counted cells, suspended in Hanks medium (Gibco, Grand Island N.Y.) were implanted S.C. (10^6 cells in 0.4 mL per mouse). Solid tumor growth was measured on each third day. Equimolar amounts of the test compounds (1.0 mM, 400 μL) were injected i.p. on days 1, 3, 5, 7, 9, and 11 using the following media:
# (.quadrature.): Control, saline in 5× distilled water (D5W) […]
# [14] = tested on: PC-3 prostate carcinoma tumor xenograft; conditions: in vivo
# Experimental: as §3
# The tumor model was generated from an ATTC PC-3 prostate carcinoma cell line that was maintained under standard cell proliferation conditions, viz. 37° C., 5% carbon dioxide in sterile air. Each cohort was comprised of eight randomly chosen female athymic nude mice, for a total population size of twenty four. Hemocytometer counted cells, suspended in Hanks mediun (Gibco, Grand Island N.Y.) were implanted S.C. (10^6 cells in 0.4 mL per mouse). Solid tumor growth was measured on each third day. Equimolar amounts of the test compounds (1.0 mM, 400 μL) were injected i.p. on days 1, 3, 5, 7, 9, and 11 using the following media:
# (.smallcircle.): Control, 5% dextrose in 5× distilled water (5 DW)
# (Δ): Taxol (18.0 mg/kg of animal weight or approximately 1.260 mg/m^2) suspended in Cremaphor/D5W
# Inferences about efficacy were drawn by ANOVA followed by protected t-test. […] Data shown as mean value with standard error.
# [15] = Comparative toxicities (lethality) in mice; conditions: in vivo
# [16] = tested on: A549 lung adenocarcinoma tumor xenograft; assay: Human lung adenocarcinoma A549 xenograft in nude mice; conditions: 1.0 mM, 400 μL i.p. days 1, 3, 5, 7, 9, 11
# Experimental: as §3
# The tumor model was generated from A549 cell line, an ATTC that was maintained under standard cell proliferation conditions (37° C., 5% carbon dioxide in sterile air). Each cohort was comprised of six randomly chosen female athymic nude mice, for a total population size of twenty four mice. Hemocytometer counted cells, suspended in Hanks mediun (Gibco, Grand Island N.Y.) were implated S.C. (10^6 cells in 0.4 mL per mouse). Solid tumor growth was measured on each third day. Equimolar amounts of the test compounds (1.0 mM, 400 μL) were injected i.p. on days 1, 3, 5, 7, 9, and 11 using the following media:
# (Δ): Control, saline in 5× distilled water (5 DW)
# (.smallcircle.): Taxol (18.0 mg/kg of animal weight or approximately 1,260 mg/m^2) suspended in Cremaphor/D5W […]
# [17] = Plasma stability and prodrug reversion (ethyl acetate extraction, HPLC); conditions: human, plasma
smiles,measurement,setting,value
CC(=O)O[C@H]1C(=O)[C@@]2(C)[C@H]([C@H](OC(=O)c3ccccc3)[C@]3(O)C[C@H](OC(=O)[C@H](Oc4cccc[n+]4C)[C@@H](NC(=O)c4ccccc4)c4ccccc4)C(C)=C1C3(C)C)[C@]1(OC(C)=O)CO[C@@H]1C[C@@H]2O [Compound 2],IC50,SK-Mel-28 melanoma cells,87.9 nM
same,IC50,[1],152 nM
same,IC50,[2],5.72 nM
same,IC50,[3],5.7 nM
same,IC50,[4],7.49 nM
same,IC50,[5],3.19 nM
same,IC50,[6],27.4 nM
same,IC50,[7],6.47 nM
same,IC50,[8],7.07 nM
same,IC50,[9],0.25 nM
same,IC50,L-1210 leukemia cells,12.8 nM
same,IC50,[10],214 nM
same,IC50,NHDF dermal fibroblast,377 nM
same,IC50,[11],131 nM
same,Kd,"intact Molt-4 cells; calculated from slopes of linear portions of curves in FIG. 3, read-out: binding constant",3000 nM
same,"affinity in competition assays of intact cells, in words",intact Molt-4 cells; relative to parent taxol,three orders of magnitude below that of the parent taxol
same,lower specific binding affinity than taxol,intact Molt-4 cells; relative to taxol,approximately 1000 fold
same,administered radioactivity in the combined urine and feces,[12],4-5%
same,cytotoxicity relative to the C-7-isomer (3),tumor cell lines,about 10 fold
same,"tumor growth inhibition, Ovcar-3","[13]; 1.0 mM, 400 μL i.p. days 1, 3, 5, 7, 9, 11",complete inhibition of tumor growth
same,"survival of animals, Ovcar-3",[13]; in vivo,100%
same,"mice surviving treatment, PC-3",[14],all of the mice given either the 2'- or 7-isomers survived
same,in vivo toxicity relative to taxol or taxotere,[15],much less toxic in vivo than taxol or taxotere
same,Toxicity,[15]; mouse,minimal toxicity
same,lethality,[15]; mouse,no lethality
same,"tumor growth inhibition, A549",[16],inhibited tumor growth nearly completely
same,half-life,[17],2.4 min
same,recovery,[17],21%
